Measured values as given in publication PMC11093668 (Clinical Infectious Diseases: An Official Publication of …, 2023).
Like-named read-outs stand apart in the source and are kept apart here. Each block holds one molecule with its values, some of them ahead of it.

Legend:
[1] = human, in vivo
[2] = atazanavir co-administration; cited from earlier work
HIV [3] = test system: HIV; design: method as in ref 25 = [25]; 25 Fda, Cder . Reyataz (atazanavir sulfate) capsules label. Available at: www.fda.gov/medwatch . Accessed 17 September 2019.; settings: primary target minimum concentration; cited from earlier work
clinical = settings: human, in vivo, geometric mean (90% CI)
HIV [4] = test system: HIV; design: method as in ref 26 = [26]; 26 Gonzalez de Requena D , Bonora S , Canta F , et al Atazanavir trough is associated with efficacy and safety: definition of therapeutic range. In: 6th Intenational Workshop on Clinical Pharmacology; settings: secondary target; cited from earlier work

- AUC24 (exposure) higher with dose escalation of ATV/r [1]: 1.6 fold
- Ctau higher with dose escalation of ATV/r ([1]; 12 h): 2 folds
Compound: C[C@@H]1CCO[C@H]2Cn3cc(C(=O)NCc4ccc(F)cc4F)c(=O)c(O)c3C(=O)N12 [Dolutegravir, dolutegravir]
- increase in dolutegravir exposure [2]: 91%

- Ctau higher with dose escalated ATV/r ([1]; 24 h): 40%
Compound: CO[C@H]1/C=C/O[C@@]2(C)Oc3c(C)c(O)c4c(O)c(c(/C=N/N5CCN(C)CC5)c(O)c4c3C2=O)NC(=O)/C(C)=C\C=C\[C@H](C)[C@H](O)[C@@H](C)[C@@H](O)[C@@H](C)[C@H](OC(C)=O)[C@@H]1C [Rifampicin, rifampicin]

- AUC24, geometric mean (90% CI) [1]: 9.5 (8.4 - 11) mg·h/L
- Clearance/F, geometric mean (90% CI) [1]: 11 (9.34 - 11.9 L/h
- T1/2, geometric mean (90% CI) [1]: 5.7 (5.4- 6.1) h
- Ctau, geometric mean (90% CI) ([1]; 24 h): 0.068 (0.060- 0.077) mg/L
Compound: CC(C)c1nc(CN(C)C(=O)N[C@H](C(=O)N[C@@H](Cc2ccccc2)C[C@H](O)[C@H](Cc2ccccc2)NC(=O)OCc2cncs2)C(C)C)cs1 [Ritonavir, ritonavir]

- AUC24, geometric mean (90% CI) [1]: 40 (35–46) mg·h/L
- Clearance/F, geometric mean (90% CI) [1]: 7.5 (6.6–8.7) L/h
- T1/2, geometric mean (90% CI) [1]: 11 (10–12) h
- Ctau, geometric mean ratio (90% CI) ([1]; 12 h): 0.98 (0.81–1.2)
- Ctau, geometric mean (90% CI) ([1]; 24 h): 0.59 (0.48–0.74) mg/L
- Ctau, geometric mean ratio (90% CI) ([1]; 24 h): 0.039 (0.032– 0.048)
- lowest Ctau, fold higher than PA-IC90 ([1]; 24 h): 12.7 fold
- proportion of Ctau below the limit of quantification (0.03 mg/L) ([1]; 24 h): 65%
- Cmax (clinical): 4600 ng/mL
Compound: COC(=O)N[C@H](C(=O)N[C@@H](Cc1ccccc1)[C@@H](O)CN(Cc1ccc(-c2ccccn2)cc1)NC(=O)[C@@H](NC(=O)OC)C(C)(C)C)C(C)(C)C [Atazanavir, atazanavir]
- protein-adjusted IC90 (PA-IC90) (HIV [3]): 0.014 µg/mL
- minimum effective concentration (MEC) (HIV [4]): 0.15 mg/L
